Where a SMILES comes first, the peptide text is derived from it. [ ]: non-standard residue; d: D form.
What was measured:
MPAO1-ΔmutS = assay: In vitro adaptive evolution (serial passaging) with MIC determination; format: cell-based, Pseudomonas aeruginosa; details: for cross-resistance to antibiotics induced by treatment / cross-resistance to peptides induced by treatment: MPAO1-ΔmutS evolved in the named drug; for resistance acquisition on repeated exposure to the drug: MPAO1-ΔmutS, monotherapy
Method: (§1) MICs were determined via microbroth dilution assay in 96-well culture plates with 2-fold serial dilutions of tested antibiotic in Mueller-Hinton (cation-adjusted) broth, inoculated with 50 μL of 2.75×10^5 CFU/mL of each bacterial strain and incubated at 37° C., 200 rpm for 24 hours. MIC experiments were performed using biological triplicates.
(§2) Serial passaging of bacterial strains was performed in 96-well culture plates with 2-fold serial dilutions of antibiotic in MH broth, inoculated with 50 μL 2.75×10^5 CFU/mL of each strain and incubated at 37° C., 200 rpm for 24 hours. […] The bacteria were then serially passaged in the same antibiotic and MIC determined for all antibiotics (aztreonam, ciprofloxacin, D-CONGA, D-CONGA-Q7, polymyxin B). See Antimicrobial susceptibility testing section. The bacteria were serially passaged a total of 10 times.
(§3) All resistance acquisition data was analyzed in units of fold-change to normalize for differences in starting MIC across strains. Fold-change in MIC data for all strains and treatment groups was natural log-transformed and simple linear regression was performed considering each replicate fold-change value as an individual point. Slope, standard error of slope, and total number of values of each treatment group of interest were analyzed via unpaired t-test (ΔmutS vs WT) or ordinary one-way ANOVA (cross-resistance acquisition of ΔmutS+AB vs −AB vs WT), and α-values were corrected for multiple comparisons using the Bonferroni method. Differences in estimated mutation rate across treatment groups were determined via ordinary one-way ANOVA (Brown-Forsythe test). For all statistical tests, p<0.05 was considered significant. All figures were created and statistical tests were done using GraphPad Prism 9.3.1.

MPAO1 = assay: as above; format: cell-based, Pseudomonas aeruginosa
Method: as §1, §2, §3

[1] = test system: drug-resistant clinical isolates of Staphylococcus aureus, Klebsiella pneumoniae, Acinetobacter baumannii, and P. aeruginosa; details: in vitro and in vivo, reference 23; cited from earlier work
[2] = test system: wild type P. aeruginosa (PAO1); details: reference 23; cited from earlier work
[3] = MPAO1-ΔmutS evolved in AZ + COL
[4] = MPAO1-ΔmutS evolved in AZ + D-CONGA
[5] = MPAO1-ΔmutS evolved in AZ + D-CONGA-Q7
[6] = MPAO1-ΔmutS evolved in D-CONGA-Q7
[7] = MPAO1-ΔmutS passaged with No Antibiotic (Table 4)
[8] = MPAO1-ΔmutS passaged with No Antibiotic (Table 8)
[9] = MPAO1 evolved in AZ + D-CONGA-Q7
[10] = MPAO1 passaged with No Antibiotic (Table 4)
[11] = MPAO1 passaged with No Antibiotic (Table 8)

Structure (SMILES)	fold-change relative to starting MIC before treatment (MPAO1-ΔmutS; MPAO1-ΔmutS evolved in AZ)	fold-change relative to starting MIC before treatment (MPAO1-ΔmutS; [3])	fold-change relative to starting MIC before treatment (MPAO1-ΔmutS; [4])	fold-change relative to starting MIC before treatment (MPAO1-ΔmutS; [5])	fold-change relative to starting MIC before treatment (MPAO1-ΔmutS; MPAO1-ΔmutS evolved in COL)	fold-change relative to starting MIC before treatment (MPAO1-ΔmutS; MPAO1-ΔmutS evolved in Chl)	fold-change relative to starting MIC before treatment (MPAO1-ΔmutS; MPAO1-ΔmutS evolved in D-CONGA)	fold-change relative to starting MIC before treatment (MPAO1-ΔmutS; [6])	cross-resistance to antibiotics induced by treatment (MPAO1-ΔmutS)	cross-resistance to peptides induced by treatment (MPAO1-ΔmutS)	fold-change relative to starting MIC before treatment (MPAO1-ΔmutS; [7])	fold-change relative to starting MIC before treatment (MPAO1-ΔmutS; [8])	resistance acquisition on repeated exposure to the drug (MPAO1-ΔmutS)	fold-change relative to starting MIC before treatment (MPAO1; MPAO1 evolved in AZ)	fold-change relative to starting MIC before treatment (MPAO1; MPAO1 evolved in AZ + COL)	fold-change relative to starting MIC before treatment (MPAO1; MPAO1 evolved in AZ + D-CONGA)	fold-change relative to starting MIC before treatment (MPAO1; [9])	fold-change relative to starting MIC before treatment (MPAO1; MPAO1 evolved in COL)	fold-change relative to starting MIC before treatment (MPAO1; MPAO1 evolved in D-CONGA)	fold-change relative to starting MIC before treatment (MPAO1; MPAO1 evolved in D-CONGA-Q7)	other results
CC(C)C[C@@H](NC(=O)[C@@H](CCC(N)=O)NC(=O)[C@@H](CCCNC(=N)N)NC(=O)[C@@H](CCCNC(=N)N)NC(=O)[C@@H](C)NC(=O)[C@@H](Cc1c[nH]c2ccccc12)NC(=O)[C@@H](CCCNC(=N)N)NC(=O)[C@H](N)CCCNC(=N)N)C(=O)N[C@H](C)C(=O)N[C@H](Cc1ccccc1)C(=O)N[C@H](C)C(=O)N[C@H](Cc1ccccc1)C(=O)N[C@H](CCCNC(=N)N)C(=O)N[C@H](CCCNC(=N)N)C(N)=O [D-CONGA-Q7] (H-[dR][dR][dW][dA][dR][dR][dQ][dL][dA][dF][dA][dF][dR][dR]-NH2; N-terminus and C-terminus assumed)	0.42	2	0.67	0.67	1.75	1	2.67	3.33	failed to induce marked cross-resistance to antibiotics	induced cross-resistance to other peptides	1	1.38	developed resistance	1.2	1	1.2	1.2	1	1	1.33	fold-change relative to starting MIC before treatment (MPAO1; [10]): 1; fold-change relative to starting MIC before treatment (MPAO1; [11]): 1; efficacy against drug-resistant clinical isolates [1]: efficacious in vitro and in vivo; induction of resistance [2]: has not been observed
CC(C)C[C@@H](NC(=O)[C@@H](CCCNC(=N)N)NC(=O)[C@@H](CCCNC(=N)N)NC(=O)[C@@H](C)NC(=O)[C@@H](Cc1c[nH]c2ccccc12)NC(=O)[C@@H](CCCNC(=N)N)NC(=O)[C@H](N)CCCNC(=N)N)C(=O)N[C@H](C)C(=O)N[C@H](Cc1ccccc1)C(=O)N[C@H](C)C(=O)N[C@H](Cc1ccccc1)C(=O)N[C@H](CCCNC(=N)N)C(=O)N[C@H](CCCNC(=N)N)C(N)=O [D-CONGA] (H-[dR][dR][dW][dA][dR][dR][dL][dA][dF][dA][dF][dR][dR]-NH2; N-terminus and C-terminus assumed)	0.33	1.3	0.43	0.67	3	1	2	3.33	failed to induce marked cross-resistance to antibiotics	induced cross-resistance to other peptides	1	1	developed resistance	1.2	1	1.2	1.2	1	1	1.4	fold-change relative to starting MIC before treatment (MPAO1; [10]): 2; fold-change relative to starting MIC before treatment (MPAO1; [11]): 1; efficacy against drug-resistant clinical isolates [1]: efficacious in vitro and in vivo; induction of resistance [2]: has not been observed

— patent publication US20260224658A1, “PRODUCTS AND METHODS FOR THE DIAGNOSIS AND TREATMENT OF P[…]” (priority 2023, published 2026)
